Reference: patent publication US20030157107A1, “Agents for preventing or ameliorating insulin resistance and/or obesity” (priority 2000, published 2003)
No end group written: not given here.

Assays:
GIP-receptor = target: T1, GIP-receptor (Homo sapiens, UniProt P48546); test: Inhibition of GIP-stimulated cAMP production in GIP-receptor expressing CHO cells; type: cell-based; settings: CHO cells expressing GIP-receptor stimulated by 100 pM GIP; read-out: EC50 of inhibition of the cAMP production inducing effect of GIP
T1 construct: expressed in transfected cells; host or cells: CHO cells
T1 sequence (P48546 22-466): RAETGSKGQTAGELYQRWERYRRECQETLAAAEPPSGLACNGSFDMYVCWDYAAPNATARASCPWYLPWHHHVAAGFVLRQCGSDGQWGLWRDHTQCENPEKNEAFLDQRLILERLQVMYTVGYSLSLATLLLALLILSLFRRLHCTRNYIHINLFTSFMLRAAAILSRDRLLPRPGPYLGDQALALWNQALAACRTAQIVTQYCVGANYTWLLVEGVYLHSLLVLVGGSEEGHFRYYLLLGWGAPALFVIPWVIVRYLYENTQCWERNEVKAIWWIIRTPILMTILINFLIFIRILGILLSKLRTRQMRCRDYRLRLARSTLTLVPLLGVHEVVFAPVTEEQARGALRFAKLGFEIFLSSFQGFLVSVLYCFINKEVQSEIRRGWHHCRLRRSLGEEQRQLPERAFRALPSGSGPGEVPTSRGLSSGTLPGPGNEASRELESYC
Method: 1. A method for screening drugs by monitoring an inhibitory activity on the production of cAMP, an intracellular transmitter of GIP, which according to the method described by Kubota et al. (Diabetes, 45: 1701-1705, 1996), uses the human GIP-receptor expressing cells where […] is introduced into the CHO cells, and make cAMP produced by GIP in Krebs-Ringer buffer solution containing 1 mM isobutylmethylxanthine at 37° C. for 30 minutes in the presence of the drug. Then cAMP is extracted with 30% trichloroacetic acid, and radioimmunoassay is used to quantitate cAMP. Alternatively, Scintillation Proximity Assay (SPA) provided by Amersham Pharmacia Biotech Co., Inc. is used to quantitate cAMP.
Screening of low molecular GIP function inhibitors was performed in accordance with the Example 1 of the screening method. Specifically, the GIP-receptor expressing CHO cells were stimulated with 100 pM GIP in the presence and absence of the test compound, and the amount of produced cAMP was measured to determine the GIP function inhibitory activity of the test compound. […] Moreover, in order to determine other effects which are unrelated to these receptors, the CHO cells without introducing any of these receptor genes were stimulated with 5 μM forskolin, and the inhibitory effect of the test compound on production of cAMP was determined. […]

GLP-1-receptor = target: T2, GLP-1-receptor (Homo sapiens, UniProt P43220); test: Inhibition of GLP-1-stimulated cAMP production in CHO cells expressing GLP-1-receptor; type: cell-based; settings: CHO cells expressing GLP-1-receptor stimulated by 100 pM GLP-1
T2 construct: expressed in transfected cells; host or cells: CHO cells
Method: (§1) Screening of low molecular GIP function inhibitors was performed in accordance with the Example 1 of the screening method. Specifically, the GIP-receptor expressing CHO cells were stimulated with 100 pM GIP in the presence and absence of the test compound, and the amount of produced cAMP was measured to determine the GIP function inhibitory activity of the test compound. In addition, in order to confirm the receptor specificity of the test compound, the CHO cells expressing receptors of GLP-1 and glucagon which belong to glucagon-secretin family like GIP were stimulated with GLP-1 and glucagon (100 pM), respectively, and the inhibitory activity of the test compound on production of CAMP was determined. Moreover, in order to determine other effects which are unrelated to these receptors, the CHO cells without introducing any of these receptor genes were stimulated with 5 μM forskolin, and the inhibitory effect of the test compound on production of cAMP was determined. As for positive control, 500 nM GIP (7-30)-NH2 (tGIP) was used. [drawing 1]

glucagon-receptor = target: T3, glucagon-receptor (Homo sapiens, UniProt P47871); test: Inhibition of glucagon-stimulated cAMP production in CHO cells expressing glucagon-receptor; type: cell-based; settings: CHO cells expressing glucagon-receptor stimulated by 100 pM glucagon, read-out: inhibitory rate on the action of glucagon (cAMP production)
T3 construct: expressed in transfected cells; host or cells: CHO cells
Method: as §1

[1] = tested on: CHO cells without transfer of receptor genes; test: Inhibition of forskolin-stimulated cAMP production in CHO cells without transfer of receptor genes; type: cell-based; settings: 5 μM forskolin
Method: as §1

[2] = tested on: glucose absorption by the intestine; settings: reported in WO98/24464; cited from earlier work
C57BL/6j mice = test: GIP administration and high fat diet loading test in normal mice; type: in vivo; settings: high fat diet
Method: The animals used were 17-week-old male C57BL/6j mice. An osmotic pump was implanted under the skin of the back of each animal. Groups of animals each consisting of 5 mice were continuously given GIP 20, 60 or 200 μg/kg/hour or physiological saline as control, and also given either high fat diet or control normal diet. The energy composition of high fat diet was: lipid 45%, carbohydrate 38%, and protein 17%. The energy composition of control normal diet was: lipid 13%, carbohydrate 60%, and protein 27%. The energy contents of high fat and control normal diets were 4.77 and 3.57 kcal/g, respectively. GIP administration and high fat diet loading were continued for 4 weeks.
The body weights were measured weekly, and their changes were compared between the groups. The blood samples were collected under fasting 4 weeks after the start of the experiment to determine the blood glucose and insulin levels.

[3] = continuous GIP 20, 60 or 200 μg/kg/hour, after 4 weeks, vs same diet without GIP

T3 sequence (P47871 26-477, species assumed): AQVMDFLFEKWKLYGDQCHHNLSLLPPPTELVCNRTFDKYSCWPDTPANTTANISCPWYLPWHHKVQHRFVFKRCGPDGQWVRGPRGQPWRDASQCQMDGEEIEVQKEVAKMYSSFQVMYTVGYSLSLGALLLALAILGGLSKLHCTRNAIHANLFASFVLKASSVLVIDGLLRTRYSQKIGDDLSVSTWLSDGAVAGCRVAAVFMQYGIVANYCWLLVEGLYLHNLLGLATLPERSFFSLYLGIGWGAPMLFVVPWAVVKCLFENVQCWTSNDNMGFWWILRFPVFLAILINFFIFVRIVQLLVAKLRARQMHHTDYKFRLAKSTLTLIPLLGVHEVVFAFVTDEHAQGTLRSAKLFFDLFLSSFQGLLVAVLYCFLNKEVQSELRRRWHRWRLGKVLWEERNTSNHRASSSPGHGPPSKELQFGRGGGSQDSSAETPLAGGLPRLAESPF
T2 sequence (P43220 24-463, species assumed): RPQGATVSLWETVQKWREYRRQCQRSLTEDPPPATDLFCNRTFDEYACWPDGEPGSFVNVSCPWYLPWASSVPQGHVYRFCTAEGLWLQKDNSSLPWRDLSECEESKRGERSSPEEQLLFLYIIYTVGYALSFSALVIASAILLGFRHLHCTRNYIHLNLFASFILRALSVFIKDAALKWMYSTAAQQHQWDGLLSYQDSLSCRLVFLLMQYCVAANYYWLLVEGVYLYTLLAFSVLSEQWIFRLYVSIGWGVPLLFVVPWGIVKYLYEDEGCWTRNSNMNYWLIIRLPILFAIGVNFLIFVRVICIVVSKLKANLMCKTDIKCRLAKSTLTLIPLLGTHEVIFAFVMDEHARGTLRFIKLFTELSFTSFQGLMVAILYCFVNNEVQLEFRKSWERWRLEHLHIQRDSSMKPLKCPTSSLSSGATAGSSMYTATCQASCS

Cc1cc(O)n2nc(-c3ccccc3)c(Br)c2n1 [BMPP, 3-bromo-5-methyl-2-phenylpyrazolo[1,5-a]pyrimidine-7-ol]
EC50 (GIP-receptor): ~30 µM
inhibitory effect on GLP-1 action (cAMP production) (GLP-1-receptor): almost no inhibitory effect
inhibition at 80 µM (glucagon-receptor): 27%
inhibitory effect on cAMP production stimulated by forskolin [1]: did not show any inhibitory effect

GIP (7-30)-NH2: fragmented peptide of GIP, known GIP-receptor antagonist, used as positive control (ISDYSIAMDKIHQQDFVNWLLAQK-NH2; UniProt P09681 58-81, looked up, fragment)
glucose absorption by the intestine [2]: suppressed glucose absorption by the intestine

GIP: gastric inhibitory polypeptide or glucose-dependent insulinotropic peptide, a gastrointestinal hormone (YAEGTFISDYSIAMDKIHQQDFVNWLLAQKGKKNDWKHNITQ; Gastric inhibitory polypeptide; UniProt P09681 52-93, looked up)
body weight gain (C57BL/6j mice; continuous GIP 20, 60 or 200 μg/kg/hour by osmotic pump, 4 weeks): No further increase in the body weight gain
fasting blood glucose levels (C57BL/6j mice; [3]): increased depending on the dose of GIP
fasting blood insulin levels (C57BL/6j mice; [3]): tended to increase depending on the dose of GIP
